According to ChEMBL document CHEMBL5335861, “Novel ACC Inhibitors for Treating Acne” (ACS Med Chem Lett, 2024):

Target: Acetyl-CoA carboxylase 1 (Homo sapiens, UniProt Q13085)
Assay: Inhibition of full length human recombinant ACC1 expressed in baculovirus infected Sf9 cells incubated for 18 hrs in presence of ATP by envision fluorescence reader analysis

COc1cc(C(=O)N2CCC3(CC2)CC(=O)c2nc(C(C)(C)C)sc2C3)c2[nH]ccc2c1Cl
IC50: 1.3 nM
